This note sets out measurements from patent US20170253607A1, “LONG-ACTING HIV PROTEASE INHIBITOR” (Shionogi & Co., Ltd., priority 2014, published 2017).

Data set [1] in a line: Evaluation of total body clearance (CLtot), intravenous administration. Format: in vivo, Sprague-Dawley (SD). The note with it: rat (SD), intravenous administration 0.5-10 mg/kg; CLtot = dose/AUC. The gist of the method:
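Compounds given as a single tail-vein injection at 0.5-10 mg/kg (n=2-3), dose varying by compound. Plasma sampled at scheduled times and measured by LC/MS/MS; CLtot derived as dose divided by AUC from pharmacokinetic analysis.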

For data set [2], the target named is HIV-1 PR (Human immunodeficiency virus type 1 group M subtype B, UniProt P04585). The experiment in a line: HIV-protease inhibitory activity assay (FRET peptide substrate). The data set is classed as biochemical. The note with it: Test Example 1. The method in brief:
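Fluorescence recovery at ex 485/em 535 nm reports cleavage of a quenched FRET peptide (2 μmol/L final) by 0.83 ng enzyme over 60 minutes at room temperature. Buffer was NaAc pH 4.8 with NaCl, EDTA, DTT and Tween 20. IC50 values came from four-parameter logistic regression of % inhibition.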

A short description of data set [3]: Protein binding test (equilibrium dialysis, unbound ratio fu in serum). The data set is classed as in vitro ADME. The note with it: rat serum, equilibrium dialysis 24 hours, 37° C., 2 μg/mL. The method in brief: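 Compound at 2 μg/mL in serum was dialysed against PBS for 24 hours at 37° C. Both sides were quantified by LC/MS/MS, and fu was taken as the PBS concentration divided by the serum concentration.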
For orientation: Equilibrium dialysis compares concentrations on both sides of a semipermeable membrane.

Broadly, the IC50 is the concentration at which inhibition is half-maximal. As for `COc1ccc(S(=O)(=O)N(CC(C)C)CC(O)C(Cc2ccc(NC3Cc4cccc(-c5sc6c(c5C(=O)O)CC(C)(C)CC6)c4C3)cc2)NC(=O)OC2COC3(C)OCCC23)cc1` (stereo not drawn) [Compound I-241], in data set [1], the rat_CLt was 0.404 mL/min/kg. The compound further had an IC50 in data set [2] of 2.95 nM. For the same compound, the rat_fu in data set [3] is less than 0.1%.
The corresponding values for `COc1ccc(S(=O)(=O)N(CC(C)C)CC(O)C(Cc2ccc(NC3Cc4cccc(-c5sc6c(c5C(=O)O)CC(C)(C)CC6)c4C3)cc2)NC(=O)OC2COC3(C)OCCC23)cc1` (stereo not drawn) [Compound I-242] are 0.408 mL/min/kg, 3.11 nM and less than 0.1%.
The corresponding values for `COc1ccc(S(=O)(=O)N(CC(C)C)CC(O)C(Cc2ccc(OCC3=C(c4sc5c(c4C(=O)O)CC(C)(C)CC5)CCCC3)cc2)NC(=O)OC2COC3(C)OCCC23)cc1` (stereo not drawn) [Compound I-243] are 0.477 mL/min/kg, 4.24 nM and less than 0.1%.
The corresponding values for `COc1ccc(S(=O)(=O)N(CC(C)C)C[C@@H](O)[C@H](Cc2ccc(NC[C@H]3CCCC[C@H]3c3sc4c(c3C(=O)O)CC(C)(C)CC4)cc2)NC(=O)O[C@H]2CO[C@@]3(C)OCC[C@@H]23)cc1` [Compound I-247] are 0.148 mL/min/kg, 2.25 nM and less than 0.1%.
Consider `COc1ccc(S(=O)(=O)N(CC2CCCC2)CC(O)C(Cc2ccc(OCc3nc(C)sc3-c3sc4c(c3C(=O)O)CC(C)(C)CC4)cc2)NC(=O)OC2COC3(C)OCCC23)cc1` (stereo not drawn) [Compound I-248], for which the rat_CLt in data set [1] is 2.47 mL/min/kg. Further, in data set [2], half-maximal inhibition (IC50) was put at 2.26 nM. Besides, in data set [3], the rat_fu is less than 0.1%.
In data set [1], `COc1ccc(S(=O)(=O)N(CC(C)C)CC(O)C(Cc2ccc(NCc3ccc(-c4sc5c(c4C(=O)O)CC(C)(C)CC5)cc3)cc2)NC(=O)OC2COC3(C)OCCC23)cc1` (stereo not drawn) [Compound I-253] came in with a rat_CLt of 4.65 mL/min/kg. This compound also had an IC50 in data set [2] of 2.59 nM. Also, the rat_fu in data set [3] was less than 0.1%.
The corresponding values for `COc1ccc(S(=O)(=O)N(CC(C)C)CC(O)C(Cc2ccc(NCc3cc(C#N)ccc3-c3sc4c(c3C(=O)O)CC(C)(C)CC4)cc2)NC(=O)OC2COC3(C)OCCC23)cc1` (stereo not drawn) [Compound I-256] are 3.83 mL/min/kg, 2.82 nM and less than 0.1%.
On the same counts, the results for `COc1ccc(S(=O)(=O)N(CC(C)C)CC(O)C(Cc2ccc(NCCCc3ccccc3-c3sc4c(c3C(=O)O)CC(C)(C)CC4)cc2)NC(=O)OC2COC3(C)OCCC23)cc1` (stereo not drawn) [Compound I-260] are 0.801 mL/min/kg, 2.96 nM and less than 0.1%.
The corresponding values for `COc1ccc(S(=O)(=O)N(CC(C)C)CC(O)C(Cc2ccc(N(C)CCc3ccccc3-c3sc4c(c3C(=O)O)CC(C)(C)CC4)cc2)NC(=O)OC2COC3(C)OCCC23)cc1` (stereo not drawn) [Compound I-261] are 2.78 mL/min/kg, 3.55 nM and less than 0.1%.
Compound `COc1ccc(S(=O)(=O)N(CC(C)C)CC(O)C(Cc2ccc(NCCc3ccccc3-c3sc4c(c3C(=O)O)CC(C)(C)CC4)cc2)NC(=O)OC2COC3(C)OCCC23)cc1` (stereo not drawn) [Compound I-262] showed a rat_CLt in data set [1] of 0.343 mL/min/kg. In addition, the IC50 in data set [2] was determined as 3.95 nM. Also, the rat_fu in data set [3] is less than 0.1%.
Compound `COc1ccc(S(=O)(=O)N(CC(C)C)CC(O)C(Cc2ccc(CN(C)c3ccc(-c4sc5c(c4C(=O)O)CC(C)(C)CC5)cc3)cc2)NC(=O)OC2COC3(C)OCCC23)cc1` (stereo not drawn) [Compound I-265] registered a rat_CLt in data set [1] of 4.01 mL/min/kg. For the same compound, in data set [2], the IC50 worked out at 5.07 nM. Further, the rat_fu in data set [3] is given as less than 0.1%.
In turn, `COc1ccc(S(=O)(=O)N(CC(C)C)CC(O)C(Cc2ccc(CN(C)Cc3ccc(-c4sc5c(c4C(=O)O)CC(C)(C)CC5)cc3)cc2)NC(=O)OC2COC3(C)OCCC23)cc1` (stereo not drawn) [Compound I-267] gave a rat_CLt in data set [1] of 5.01 mL/min/kg. This compound also yielded a half-inhibitory concentration (IC50) in data set [2] of 2.4 nM. In addition, in data set [3], the rat_fu is listed as less than 0.1%.
As to `COc1ccc(S(=O)(=O)N(CC(C)C)C[C@@H](O)[C@H](Cc2ccc(OCc3ccccc3C(=O)Nc3sc4c(c3C(=O)O)CC(C)(C)CC4)cc2)NC(=O)O[C@H]2CO[C@@]3(C)OCC[C@@H]23)cc1` [Compound I-268], in data set [1], the rat_CLt is listed as 0.0553 mL/min/kg. Moreover, in data set [2], the IC50 worked out at 4.46 nM. Also, the rat_fu in data set [3] was less than 0.1%.
The corresponding values for `COc1ccc(S(=O)(=O)N(CC(C)C)CC(O)C(Cc2ccc(NCc3cc(F)ccc3-c3sc4c(c3C(=O)O)CC(C)(C)CC4)cc2)NC(=O)OC2COC3(C)OCCC23)cc1` (stereo not drawn) [Compound I-271] are 2.42 mL/min/kg, 2.23 nM and less than 0.1%.
On the same counts, the results for `COc1ccc(S(=O)(=O)N(CC(C)C)CC(O)C(Cc2ccc(NCc3ccc(C)cc3-c3sc4c(c3C(=O)O)CC(C)(C)CC4)cc2)NC(=O)OC2COC3(C)OCCC23)cc1` (stereo not drawn) [Compound I-272] are 0.715 mL/min/kg, 2.11 nM and less than 0.1%.
`COc1ccc(S(=O)(=O)N(CC(C)C)CC(O)C(Cc2ccc(NCc3ccc(OC)cc3-c3sc4c(c3C(=O)O)CC(C)(C)CC4)cc2)NC(=O)OC2COC3(C)OCCC23)cc1` (stereo not drawn) [Compound I-274] displayed a rat_CLt in data set [1] of 0.659 mL/min/kg. For the same compound, the IC50 in data set [2] worked out at 2.11 nM. For the same compound, the rat_fu in data set [3] is reported as less than 0.1%.
The corresponding values for `COc1ccc(S(=O)(=O)N(CC(C)C)CC(O)C(Cc2ccc(NCc3ccc(F)cc3-c3sc4c(c3C(=O)O)CC(C)(C)CC4)cc2)NC(=O)OC2COC3(C)OCCC23)cc1` (stereo not drawn) [Compound I-275] are 2.12 mL/min/kg, 2.11 nM and less than 0.1%.
On to `COc1ccc(S(=O)(=O)N(CC(C)C)CC(O)C(Cc2ccc(NCc3cccc(F)c3-c3sc4c(c3C(=O)O)CC(C)(C)CC4)cc2)NC(=O)OC2COC3(C)OCCC23)cc1` (stereo not drawn) [Compound I-277], for which the rat_CLt in data set [1] came out at 0.512 mL/min/kg. This compound registered an IC50 in data set [2] of 1.94 nM. The rat_fu in data set [3] is given as less than 0.1%.
The corresponding values for `COc1ccc(S(=O)(=O)N(CC(C)C)CC(O)C(Cc2ccc(NCc3cccc(-c4sc5c(c4C(=O)O)CC(C)(C)CC5)c3C)cc2)NC(=O)OC2COC3(C)OCCC23)cc1` (stereo not drawn) [Compound I-292] are 0.166 mL/min/kg, 2.68 nM and less than 0.1%.
The corresponding values for `COc1ccc(S(=O)(=O)N(CC(C)C)CC(O)C(Cc2ccc(NCc3ncc(-c4sc5c(c4C(=O)O)CC(C)(C)CC5)s3)cc2)NC(=O)OC2COC3(C)OCCC23)cc1` (stereo not drawn) [Compound I-297] are 3.54 mL/min/kg, 1.82 nM and less than 0.1%.
`COc1ccc(S(=O)(=O)N(CC(C)C)CC(O)C(Cc2ccc(NCC3(O)CCCC3c3sc4c(c3C(=O)O)CC(C)(C)CC4)cc2)NC(=O)OC2COC3(C)OCCC23)cc1` (stereo not drawn) [Compound I-334] displayed a rat_CLt in data set [1] of 3.87 mL/min/kg. Moreover, in data set [2], inhibition was half-maximal at 1.91 nM (IC50). In data set [3], the rat_fu is less than 0.1%.
Turning to `CCCCCN(Cc1ccccc1-c1sc2c(c1C(=O)O)CC(C)(C)CC2)c1ccc(CC(NC(=O)OC2COC3(C)OCCC23)C(O)CN(CC(C)C)S(=O)(=O)c2ccc(OC)cc2)cc1` (stereo not drawn) [Compound I-338], in data set [1], the rat_CLt was 5.7 mL/min/kg. Also, the IC50 in data set [2] stood at 4.7 nM. In addition, the rat_fu in data set [3] is less than 0.1%.
On the same counts, the results for `COc1ccc(S(=O)(=O)N(CC(C)C)CC(O)C(Cc2ccc(OC3CCC(c4ccc(C(F)(F)F)cc4-c4sc5c(c4C(=O)O)CC(C)(C)CC5)C3)cc2)NC(=O)OC2COC3(C)OCCC23)cc1` (stereo not drawn) [Compound I-343] are 3.31 mL/min/kg, 15.9 nM and less than 0.1%.
In turn, `COc1ccc(S(=O)(=O)N(CC(C)C)CC(O)C(Cc2ccc(N(C)CC3=C(c4sc5c(c4C(=O)O)CC(C)(C)CC5)CCC3)cc2)NC(=O)OC2COC3(C)OCCC23)cc1` (stereo not drawn) [Compound I-347] returned a rat_CLt in data set [1] of 5.18 mL/min/kg. The compound further yielded an IC50 in data set [2] of 4.4 nM. For the same compound, in data set [3], the rat_fu is given as less than 0.1%.
In data set [1], `COc1ccc(S(=O)(=O)N(CC(C)C)CC(O)C(Cc2ccc(N(C)Cc3ccccc3-n3nc4c(c3C(=O)O)CC(C)(C)CC4)cc2)NC(=O)OC2COC3(C)OCCC23)cc1` (stereo not drawn) [Compound I-349] displayed a rat_CLt of 0.71 mL/min/kg. Besides, the IC50 in data set [2] stood at 2.33 nM. Also, the rat_fu in data set [3] is on record as less than 0.1%.
On the same counts, the results for `COc1ccc(S(=O)(=O)N(CC(C)C)CC(O)C(Cc2ccc(N3CCC(Oc4ccc(-c5sc6c(c5C(=O)O)CC(C)(C)CC6)cc4)C3)cc2)NC(=O)OC2COC3(C)OCCC23)cc1` (stereo not drawn) [Compound I-351] are 3.08 mL/min/kg, 5.09 nM and less than 0.1%.
Compound `CCN(Cc1ccccc1-c1sc2c(c1C(=O)O)CC(C)(C)CC2)c1ccc(CC(NC(=O)OC2COC3(C)OCCC23)C(O)CN(CC(C)C)S(=O)(=O)c2ccc(OC)cc2)cc1` (stereo not drawn) [Compound I-352] had a rat_CLt in data set [1] of 3.26 mL/min/kg. Also, in data set [2], the IC50 stood at 4.22 nM. Moreover, the rat_fu in data set [3] is recorded as less than 0.1%.
The corresponding values for `COc1ccc(S(=O)(=O)N(CC(C)C)CC(O)C(Cc2ccc(OC3CN(c4cc(C(F)(F)F)ccc4-c4sc5c(c4C(=O)O)CC(C)(C)CC5)C3)cc2)NC(=O)OC2COC3(C)OCCC23)cc1` (stereo not drawn) [Compound I-354] are 0.0682 mL/min/kg, 44.2 nM and less than 0.1%.
